Key:
Assay type in all cases: cell-based
B.1.1.7 (α-variant) = assay: SARS-CoV-2 inhibition assay in Vero E6 cells, B.1.1.7; settings: 0.99 μM
B.1.351 (β-variant) = assay: SARS-CoV-2 inhibition assay in Vero E6 cells, B.1.351; settings: 0.99 μM
B.1.617.2 (δ-variant) = assay: SARS-CoV-2 inhibition assay in Vero E6 cells, B.1.617.2; settings: 0.99 μM
B.1.617 (κ-variant) = assay: SARS-CoV-2 inhibition assay in Vero E6 cells, B.1.617; settings: 0.99 μM
[1] = tested on: variants of SARS-CoV-2 (B1.1.7, B.1.351, B.1.617.2, and B.1.617.1); settings: for prevention of infection of all clades: alone at their highest doses; for reduction of SARS-CoV-2 infection in all lineages: alone or in combination, lowest given concentration

Compound	effect on α-SARS-CoV-2 growth (B.1.1.7 (α-variant))	effect on β-SARS-CoV-2 growth (B.1.351 (β-variant))	effect on δ-SARS-CoV-2 growth (B.1.617.2 (δ-variant))	effect on κ-SARS-CoV-2 growth (B.1.617 (κ-variant))	inhibition of viral growth among all variants ([1]; 1.98 μM)	prevention of infection of all clades [1]	reduction of SARS-CoV-2 infection in all lineages [1]	inhibitory effectiveness against all VOCs [1]
N[C@@H](CC(=O)N1CCn2c(nnc2C(F)(F)F)C1)Cc1cc(F)c(F)cc1F [Sitagliptin, sitagliptin]	partially inhibit	partially inhibit	unable to prevent even the partial growth	partially inhibit	6–7 folds	entirely prevent the infection of all clades	6–10 folds	–
CC#CCn1c(N2CCC[C@@H](N)C2)nc2c1c(=O)n(Cc1nc(C)c3ccccc3n1)c(=O)n2C [Linagliptin, linagliptin]	–	–	–	–	–	entirely prevent the infection of all clades	6–10 folds	dose-dependent inhibitory effectiveness

Reference: PMC10293653 (International Journal of Biological Macromolecules, 2023)
